Results from US12655106B2 (Eikonizo Therapeutics, Inc., priority 2021, dated 2026).

Assays:
Full length Human HDAC8 = molecular target: T1, Full length Human HDAC8 (Homo sapiens, UniProt Q9BY41); assay: Caliper endpoint assay for HDAC enzymatic activity (HDAC8); type: biochemical; conditions: in vitro enzymatic, 30 min pre-incubation, 1 μM substrate peptide
T1 construct: Full length Human HDAC8; HIS (N); host or cells: baculovirus expression system
T1 sequence (Q9BY41 1-377): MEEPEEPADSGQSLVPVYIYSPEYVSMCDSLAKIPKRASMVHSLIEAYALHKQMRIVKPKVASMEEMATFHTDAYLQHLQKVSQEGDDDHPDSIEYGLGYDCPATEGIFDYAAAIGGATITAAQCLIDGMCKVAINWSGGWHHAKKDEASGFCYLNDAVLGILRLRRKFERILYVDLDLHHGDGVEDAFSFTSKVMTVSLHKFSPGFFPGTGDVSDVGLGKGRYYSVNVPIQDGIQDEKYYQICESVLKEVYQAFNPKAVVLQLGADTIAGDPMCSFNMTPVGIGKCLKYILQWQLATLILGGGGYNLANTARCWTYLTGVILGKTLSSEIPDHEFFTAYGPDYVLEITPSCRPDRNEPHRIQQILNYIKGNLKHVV

Full length Human HDAC6 = molecular target: T2, Full length Human HDAC6 (Homo sapiens, UniProt Q9UBN7); assay: Caliper endpoint assay for HDAC enzymatic activity (HDAC6); type: biochemical; conditions: for IC50: in vitro enzymatic, Caliper endpoint assay, 30 min pre-incubation, 1 μM substrate peptide; for Selectivity (6 v 8): ratio of HDAC8 IC50/HDAC6 IC50
T2 construct: Full length Human HDAC6; FLAG (C); host or cells: baculovirus expression system
T2 sequence (Q9UBN7 1-1215): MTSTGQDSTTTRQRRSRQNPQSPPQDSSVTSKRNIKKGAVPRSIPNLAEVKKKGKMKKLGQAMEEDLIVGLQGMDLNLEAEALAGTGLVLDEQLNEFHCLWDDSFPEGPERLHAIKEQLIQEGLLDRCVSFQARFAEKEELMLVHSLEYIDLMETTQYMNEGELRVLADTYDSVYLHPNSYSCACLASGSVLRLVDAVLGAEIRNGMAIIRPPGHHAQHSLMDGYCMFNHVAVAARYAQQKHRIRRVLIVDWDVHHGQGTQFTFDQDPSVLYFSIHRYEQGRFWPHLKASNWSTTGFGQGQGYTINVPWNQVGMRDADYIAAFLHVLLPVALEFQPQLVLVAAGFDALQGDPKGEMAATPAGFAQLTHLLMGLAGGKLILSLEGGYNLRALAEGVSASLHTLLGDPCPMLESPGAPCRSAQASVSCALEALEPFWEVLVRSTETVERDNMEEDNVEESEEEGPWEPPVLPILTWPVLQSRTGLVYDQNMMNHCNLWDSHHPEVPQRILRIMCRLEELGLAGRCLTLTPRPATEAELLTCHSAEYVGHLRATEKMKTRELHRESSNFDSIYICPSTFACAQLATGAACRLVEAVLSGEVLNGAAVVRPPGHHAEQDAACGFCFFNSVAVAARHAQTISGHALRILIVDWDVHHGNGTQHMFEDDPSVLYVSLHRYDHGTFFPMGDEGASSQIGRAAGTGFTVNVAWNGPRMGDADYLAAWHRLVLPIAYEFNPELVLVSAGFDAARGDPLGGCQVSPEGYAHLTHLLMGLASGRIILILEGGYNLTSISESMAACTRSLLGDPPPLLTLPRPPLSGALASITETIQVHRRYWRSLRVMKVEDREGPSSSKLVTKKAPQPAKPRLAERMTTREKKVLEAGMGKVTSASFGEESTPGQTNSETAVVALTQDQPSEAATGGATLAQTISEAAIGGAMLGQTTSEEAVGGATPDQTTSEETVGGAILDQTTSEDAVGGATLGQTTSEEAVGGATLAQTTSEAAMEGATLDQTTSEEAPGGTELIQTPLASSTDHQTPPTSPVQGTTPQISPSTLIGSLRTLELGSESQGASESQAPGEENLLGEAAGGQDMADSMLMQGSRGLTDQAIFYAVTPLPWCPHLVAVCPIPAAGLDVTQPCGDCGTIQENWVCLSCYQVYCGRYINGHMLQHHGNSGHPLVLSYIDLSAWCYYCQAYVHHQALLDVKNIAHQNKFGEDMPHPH

Compound | IC50 (Full length Human HDAC8) | IC50 (Full length Human HDAC6) | Selectivity (6 v 8) (Full length Human HDAC6)
O=C(NO)c1cc(F)c2c(c1)CCN(CC13CCC(CC1)C(=O)N3)C2 [Compound 461, 8-fluoro-2-[(3-oxo-2-azabicyclo[2.2.2]octan-1-yl)methyl]-3,4-dihydro-1H-isoquinoline-6-carbohydroxamic acid] | 1000 to 10000 nM | 1 to 100 nM | V (V: >1000)
CN1CC2CC(C1)C2CN1CCc2cc(C(=O)NO)cc(F)c2C1 (stereo not drawn) [Compound 463, 8-fluoro-2-[(3-methyl-3-azabicyclo[3.1.1]heptan-6-yl)methyl]-3,4-dihydro-1H-isoquinoline-6-carbohydroxamic acid] | 10000 to 100000 nM | 1 to 100 nM | IV (IV: >100-1000)
CN1CC2(CCC(CN3CCc4cc(C(=O)NO)cc(F)c4C3)CC2)C1 [Compound 465, 8-fluoro-2-[(2-methyl-2-azaspiro[3.5]nonan-7-yl)methyl]-3,4-dihydro-1H-isoquinoline-6-carbohydroxamic acid] | 10000 to 100000 nM | 1 to 100 nM | V (V: >1000)
CC(=O)N1CC2(CCC(CN3CCc4cc(C(=O)NO)cc(F)c4C3)CC2)C1 [Compound 467, 2-[(2-acetyl-2-azaspiro[3.5]nonan-7-yl)methyl]-8-fluoro-3,4-dihydro-1H-isoquinoline-6-carbohydroxamic acid] | 10000 to 100000 nM | 1 to 100 nM | IV (IV: >100-1000)
O=C(NO)c1cc(F)c2c(c1)CCN(CC1CC3(CCNCC3)C1)C2 [Compound 468, 2-(7-azaspiro[3.5]nonan-2-ylmethyl)-8-fluoro-3,4-dihydro-1H-isoquinoline-6-carbohydroxamic acid] | 10000 to 100000 nM | 1 to 100 nM | V (V: >1000)
CN1CCC2(CC1)CC(CN1CCc3cc(C(=O)NO)cc(F)c3C1)C2 [Compound 469, 8-fluoro-2-[(7-methyl-7-azaspiro[3.5]nonan-2-yl)methyl]-3,4-dihydro-1H-isoquinoline-6-carbohydroxamic acid] | 1000 to 10000 nM | 1 to 100 nM | IV (IV: >100-1000)
O=C(NO)c1cc(F)c2c(c1)CCN(CC1CC3(CCN(C4CC4)CC3)C1)C2 [Compound 470, 2-[(7-cyclopropyl-7-azaspiro[3.5]nonan-2-yl)methyl]-8-fluoro-3,4-dihydro-1H-isoquinoline-6-carbohydroxamic acid] | 10000 to 100000 nM | 1 to 100 nM | IV (IV: >100-1000)
CC(=O)N1CCC2(CC1)CC(CN1CCc3cc(C(=O)NO)cc(F)c3C1)C2 [Compound 471, 2-[(7-acetyl-7-azaspiro[3.5]nonan-2-yl)methyl]-8-fluoro-3,4-dihydro-1H-isoquinoline-6-carbohydroxamic acid] | 10000 to 100000 nM | 1 to 100 nM | IV (IV: >100-1000)
O=C(NO)c1cc(F)c2c(c1)CCN(C[C@@]13CN[C@@H](CO1)C3)C2 [Compound 472, 8-fluoro-2-[[(1R,4R)-2-oxa-5-azabicyclo[2.2.1]heptan-1-yl]methyl]-3,4-dihydro-1H-isoquinoline-6-carbohydroxamic acid] | 1000 to 10000 nM | 1 to 100 nM | IV (IV: >100-1000)

The remaining lines, values ahead:

IC50 (Full length Human HDAC8) | IC50 (Full length Human HDAC6) | Selectivity (6 v 8) (Full length Human HDAC6) | Compound
10000 to 100000 nM | 1 to 100 nM | IV (IV: >100-1000) | CC(=O)N1CC2(CCC(N3CCc4cc(C(=O)NO)cc(F)c4C3)C2)C1 (stereo not drawn) [Compound 391, 2-(2-acetyl-2-azaspiro[3.4]octan-6-yl)-8-fluoro-N-hydroxy-1,2,3,4-tetrahydroisoquinoline-6-carboxamide]
10000 to 100000 nM | 1 to 100 nM | IV (IV: >100-1000) | O=C(NO)c1cc(F)c2c(c1)CCN(C1CCC3(CCNCC3)C1)C2 (stereo not drawn) [Compound 416, 8-fluoro-N-hydroxy-2-(8-azaspiro[4.5]decan-2-yl)-1,2,3,4-tetrahydroisoquinoline-6-carboxamide]
10000 to 100000 nM | 1 to 100 nM | IV (IV: >100-1000) | CN1CCC2(CCC(N3CCc4cc(C(=O)NO)cc(F)c4C3)C2)CC1 (stereo not drawn) [Compound 417, 8-fluoro-N-hydroxy-2-(8-methyl-8-azaspiro[4.5]decan-2-yl)-1,2,3,4-tetrahydroisoquinoline-6-carboxamide]
1000 to 10000 nM | 1 to 100 nM | IV (IV: >100-1000) | O=C(NO)c1cc(F)c2c(c1)CCN(C1CCC3(CCN(C4CC4)CC3)C1)C2 (stereo not drawn) [Compound 418, N-2-(8-cyclopropyl-8-azaspiro[4.5]decan-2-yl)-8-fluoro-N-hydroxy-1,2,3,4-tetrahydroisoquinoline-6-carboxamide]
10000 to 100000 nM | 1 to 100 nM | IV (IV: >100-1000) | CC(=O)N1CCC2(CCC(N3CCc4cc(C(=O)NO)cc(F)c4C3)C2)CC1 (stereo not drawn) [Compound 419, 2-(8-acetyl-8-azaspiro[4.5]decan-3-yl)-8-fluoro-3,4-dihydro-1H-isoquinoline-6-carbohydroxamic acid]
10000 to 100000 nM | 1 to 100 nM | V (V: >1000) | O=C(NO)c1cc(F)c2c(c1)CCN(C1CCC3(CC1)COC3)C2 [Compound 425, 8-fluoro-2-(2-oxaspiro[3.5]nonan-7-yl)-3,4-dihydro-1H-isoquinoline-6-carbohydroxamic acid]
> 100000 nM | 1 to 100 nM | V (V: >1000) | O=C(NO)c1cc(F)c2c(c1)CCN(C1CCC3(CC1)C[S+]([O-])C3)C2 (stereo not drawn) [Compound 426, 8-fluoro-2-(2-oxo-2MA-thiaspiro[3.5]nonan-7-yl)-3,4-dihydro-1H-isoquinoline-6-carbohydroxamic acid]
10000 to 100000 nM | 1 to 100 nM | V (V: >1000) | CN1CC2(CCC(N3CCc4cc(C(=O)NO)cc(F)c4C3)CC2)C1 [Compound 427, 8-fluoro-2-(2-methyl-2-azaspiro[3.5]nonan-7-yl)-3,4-dihydro-1H-isoquinoline-6-carbohydroxamic acid]
10000 to 100000 nM | 1 to 100 nM | IV (IV: >100-1000) | CC(=O)N1CC2(CCC(N3CCc4cc(C(=O)NO)cc(F)c4C3)CC2)C1 [Compound 429, 2-(2-acetyl-2-azaspiro[3.5]nonan-7-yl)-8-fluoro-3,4-dihydro-1H-isoquinoline-6-carbohydroxamic acid]
1000 to 10000 nM | 1 to 100 nM | IV (IV: >100-1000) | O=C(NO)c1cc(F)c2c(c1)CCN(C1CCC3(CC1)CN(Cc1ccccc1)C3)C2 [Compound 430, 2-(2-benzyl-2-azaspiro[3.5]nonan-7-yl)-8-fluoro-3,4-dihydro-1H-isoquinoline-6-carbohydroxamic acid]
10000 to 100000 nM | 1 to 100 nM | V (V: >1000) | O=C(NO)c1cc(F)c2c(c1)CCN(CC1CCC3(CC1)CNC3)C2 [Compound 464, 2-(2-azaspiro[3.5]nonan-7-ylmethyl)-8-fluoro-3,4-dihydro-1H-isoquinoline-6-carbohydroxamic acid]
10000 to 100000 nM | 1 to 100 nM | V (V: >1000) | O=C(NO)c1cc(F)c2c(c1)CCN(CC1CCC3(CC1)CN(C1CC1)C3)C2 [Compound 466, 2-[(2-cyclopropyl-2-azaspiro[3.5]nonan-7-yl)methyl]-8-fluoro-3,4-dihydro-1H-isoquinoline-6-carbohydroxamic acid]
